≈ marks a conversion by molar mass, not a printed value.
Tests used:
[1] = test system: M. luteus ATCC4698; assay: MBC determination; type: cell-based; details: Micrococcus luteus, 3-log reduction, 24 hour, 37° C., half strength MHB in PBS
[2] = test system: GAS (NZ131); assay: Radial diffusion assay against GAS; type: cell-based, group A streptococcus; details: fraction purified from MO34 conditioned media
Excerpt: (a) Screening for antimicrobial activity of culture supernatant from 44 strains of S. epidermidis strains isolated from normal human skin by radial diffusion assay against group A streptococcus (GAS). Data represent diameter of growth inhibition zone of conditioned media of each strain. UD=undetectable. (b) Elution profile of the antimicrobial compound purified from culture supernatant of S. epidermidis MO34 by HPLC using a PolyHYDROXYMETHYL. The last step of 5 purification steps is shown. The insert panel represents antimicrobial activity of each fraction on radial diffusion assay against GAS. Green line represents a gradient of H2O in acetonitrile. […] Antimicrobial activity against GAS was determined by radial diffusion assay. […]
S. epidermidis strains from human skin produce non-proteinaceous antibiotic. To screen for commensal skin bacteria producing antimicrobial activity, 44 strains of S. epidermidis from clinical isolates of normal human skin were cultured overnight and the antimicrobial activity produced by each isolate was determined by radial diffusion assay of their conditioned media against GAS (FIG. 1a). […]

[3] = test system: L5178Y tk+/- mouse lymphoma cells; assay: Mutagenic activity at the thymidine kinase (tk) locus; type: cell-based; details: compared to vehicle
Procedure: Because some nucleobase analogs exert mutagenic activities due to their misrecognition of wrong bases, mutagenic activity of 6-HAP was determined by detecting mutagenic events at the thymidine kinase (tk) locus of L5178Y tk^+/− mouse lymphoma cells.

[4] = Systemic toxicity in mice; type: in vivo; details: intravenous 20 mg/kg every 48 hrs for 2 weeks
Procedure: C57BL6 mice (8 week female) were intravascularly administrated with 6-HAP (20 mg/kg) or with an equal volume of vehicle (2.5% DMSO in 0.9% NaCl) every 48 hours for 2 weeks (Arrows). To observe toxicity of 6-HAP, mouse weight was determined at indicated time points. Data represent mean±SE of 10 mice.
Effect of systemic administration with 6-HAP on skin infection and melanoma growth in mice. […] Thus, given the apparent lack of toxicity, the effect on deep tissue infection was tested by intravenously injecting the non-toxic dose of 6-HAP (20 mg/kg) into a mouse model of GAS deep skin infection.

[5] = test system: GAS; assay: Subcutaneous GAS deep skin infection in mice; type: in vivo, C57BL6 mouse; details: single intravenous injection 20 mg/kg after GAS inoculation
Procedure: (a-c) Effect of a single intravascular injection of 6-HAP on skin infection by GAS. The size of the infected lesion was measured by Image-J software (a). Representative images of infected skin (arrow) of mouse treated with 6-HAP or vehicle at Day-1 and Day-3 post infection are shown in (b). Infected skin was removed 24 and 72 hrs after bacterial injection and homogenized in PBS (c). CFUs were enumerated by plating serial dilutions of the homogenate on an agar plate. The data represent mean±SE of eight individual experiments (*P<0.05 and **P<0.01 by Student's t-test vs vehicle control). (d-e) Effect of repeated intravascular administrations with 6-HAP on growth of melanoma in mice. The data represent mean±SE of 10 individual experiments (*P<0.05, **P<0.01 and ***P<0.001 by Student's t-test vs vehicle control) (d). Representative images of tumor (broken line) in mouse treated with 6-HAP or vehicle at Day-9 and Day-13 are shown in (e).
For subcutaneous infection, mouse dorsal skin was subcutaneously injected with GAS (1×10^7 CFU/50 μL in PBS) by 31 G needle. […] Wound development was monitored everyday by taking photographs along with a wound ruler and lesion size was measured with ImageJ ([http://]rsbweb.nih.gov/ij/)(hyperlink disabled by brackets). […]

[6] = test system: GAS; assay: Comparison of antimicrobial activity of natural and synthetic 6-HAP; type: cell-based, group A Streptococcus; details: THB overnight, OD600
Procedure: GAS (1×10^5 CFU/mL) were incubated with indicated concentrations of purified 6-HAP or synthetic 6-HAP in THB overnight. Bacterial growth was monitored by measuring OD600 (relative % of growth index).
Structural analyses of antibiotic produced by S. epidermidis. High-resolution electrospray (ES)-mass spectrometry analysis of the purified antimicrobial fraction identified a molecule with a mass of 151.0487, predicting a molecular formula of C5H5N5O (calculated: 151.0489) (FIG. 3a). […] Given the chemical formula as C5H5N5O, the structure was predicted as 6-N-hydroxyaminopurine (6-HAP). To confirm this predicted structure we performed a chemical synthesis of 6-HAP. […] In addition, the fragmentation profile of natural compound by electron-impact MS (FIG. 3e) also matched that of synthetic product (FIG. 3f).

ONc1ncnc2nc[nH]c12 [6-HAP, 6-N-hydroxyaminopurine]
MBC [1]: 12.5 µg/mL (≈ 82.7 µM)
zones of inhibition of GAS growth by purified fraction [2]: strong zones of inhibition
mutagenic activity, mutation frequency at tk locus [3]: did not detect a difference
toxic effects assessed by visual appearance, behavior or change in weight [4]: no apparent toxic effects
GAS survival in infected skin [5]: significantly suppressed
clinical lesion size [5]: significantly suppressed
antimicrobial activity against GAS, synthetic versus natural product [6]: comparable to that of natural product

Reference: patent US12427151B2, “Compositions and method of treating cancer” (The Regents of the University of California, priority 2017, dated 2025)
